According to BindingDB's records for doi:10.1016/j.bmcl.2019.06.049 (Dongguk University, 2019):

Molecular target: T1, Nuclear factor erythroid 2-related factor 2 (Homo sapiens, UniProt Q16236)
T1 sequence (Q16236 whole entry): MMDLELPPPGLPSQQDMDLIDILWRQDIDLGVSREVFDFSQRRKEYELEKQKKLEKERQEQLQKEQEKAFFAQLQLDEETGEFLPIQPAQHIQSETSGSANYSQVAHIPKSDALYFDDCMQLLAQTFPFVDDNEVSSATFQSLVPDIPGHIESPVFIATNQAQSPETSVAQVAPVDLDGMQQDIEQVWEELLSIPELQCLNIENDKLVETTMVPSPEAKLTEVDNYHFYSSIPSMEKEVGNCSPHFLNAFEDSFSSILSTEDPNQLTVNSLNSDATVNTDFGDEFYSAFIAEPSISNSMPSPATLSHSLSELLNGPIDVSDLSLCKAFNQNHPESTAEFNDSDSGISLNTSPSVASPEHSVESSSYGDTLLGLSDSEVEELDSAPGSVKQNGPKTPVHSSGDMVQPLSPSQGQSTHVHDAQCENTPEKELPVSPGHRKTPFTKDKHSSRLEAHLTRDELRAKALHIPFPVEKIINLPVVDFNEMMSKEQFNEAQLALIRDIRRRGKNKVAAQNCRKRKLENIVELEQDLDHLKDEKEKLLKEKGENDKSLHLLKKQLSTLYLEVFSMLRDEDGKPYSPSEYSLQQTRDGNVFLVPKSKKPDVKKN
Assay: Inhibition of NRF2 in human MDA-MB-231 cells harboring ARE-GFP-Luc assessed as reduction in ARE-luciferase activity after 16 hrs by firefly luciferase reporter gene assay

- IC50: 29 nM
SMILES: COC(=O)[C@@]12OC[C@]34[C@H]([C@@H](O)[C@@H]1O)[C@@]1(C)CC(=O)C(O)=C(C)[C@@H]1C[C@H]3OC(=O)[C@H](OC(=O)C=C(C)C)[C@@H]24
